Test results reported in patent US20230146455A1, “TREATMENT OF INFLAMMATORY DISEASES WITH PEPTIDES AND PHARMACEUTICAL COMPOSITIONS” (Yuyu Pharma, Inc., priority 2020, published 2023).
Where “and” joins values, the source holds several entries; their conditions need not be identical. Identical values can stand only once. Where a SMILES comes first, the peptide text is derived from it. [ ]: non-standard residue; d: D form. Hyp = O=C(O)[C@@H]1C[C@@H](O)CN1

System: human PBMCs
Assay: PBMC cell counts (total, live, viability; trypan blue, Countess) with and without LPS and test articles (Example 9)
Assay type: cell-based
Summary of the method: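 Human PBMCs were pretreated 2 h with test articles (0.001–100 uM) or 0.5% DMSO vehicle, then given LPS at 5 ug/ml or no LPS, in triplicate. After 24 hr, total and live cells and viability were counted by 1:1 trypan blue staining on an automated counter.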

[1] = PBMC + LPS(5 ug/ml) + compound 0.001 uM, 24 hr
[2] = PBMC + LPS(5 ug/ml) + compound 0.01 uM, 24 hr
[3] = PBMC + LPS(5 ug/ml) + compound 0.1 uM, 24 hr
[4] = PBMC + LPS(5 ug/ml) + compound 1 uM, 24 hr
[5] = PBMC + LPS(5 ug/ml) + compound 10 uM, 24 hr
[6] = PBMC + LPS(5 ug/ml) + compound 100 uM, 24 hr
[7] = PBMC + LPS(5 ug/ml) + test article 0.001 uM, Mean
[8] = PBMC + LPS(5 ug/ml) + test article 0.001 uM, single replicates
[9] = PBMC + LPS(5 ug/ml) + test article 0.01 uM, Mean
[10] = PBMC + LPS(5 ug/ml) + test article 0.01 uM, single replicates
[11] = PBMC + LPS(5 ug/ml) + test article 0.1 uM, Mean
[12] = PBMC + LPS(5 ug/ml) + test article 0.1 uM, single replicates
[13] = PBMC + LPS(5 ug/ml) + test article 1 uM, Mean
[14] = PBMC + LPS(5 ug/ml) + test article 1 uM, single replicates
[15] = PBMC + LPS(5 ug/ml) + test article 10 uM, Mean
[16] = PBMC + LPS(5 ug/ml) + test article 10 uM, single replicates
[17] = PBMC + LPS(5 ug/ml) + test article 100 uM, Mean
[18] = PBMC + LPS(5 ug/ml) + test article 100 uM, single replicates
[19] = PBMC + LPS(5 ug/ml), test article 0.001 uM, Mean
[20] = PBMC + LPS(5 ug/ml), test article 0.001 uM, single replicates
[21] = PBMC + LPS(5 ug/ml), test article 0.01 uM, Mean
[22] = PBMC + LPS(5 ug/ml), test article 0.01 uM, single replicates
[23] = PBMC + LPS(5 ug/ml), test article 0.1 uM, Mean
[24] = PBMC + LPS(5 ug/ml), test article 0.1 uM, single replicates
[25] = PBMC + LPS(5 ug/ml), test article 1 uM, Mean
[26] = PBMC + LPS(5 ug/ml), test article 1 uM, single replicates
[27] = PBMC + LPS(5 ug/ml), test article 10 uM, Mean
[28] = PBMC + LPS(5 ug/ml), test article 10 uM, single replicates
[29] = PBMC + LPS(5 ug/ml), test article 100 uM, Mean
[30] = PBMC + LPS(5 ug/ml), test article 100 uM, single replicates

CC(C)C[C@H](NC(=O)[C@H](CCC(N)=O)NC(=O)CNC(=O)[C@@H]1C[C@@H](O)CN1)C(=O)NCC(=O)O [YDE-043] (H-[Hyp]GQLG-OH; N-terminus and C-terminus assumed)
Live cell [1]: 5.0 ± 0.5 10^5/ml
Total cell [1]: 6.3 ± 0.7 10^5/ml
Live cell [2]: 5.4 ± 0.6 10^5/ml
Total cell [2]: 6.9 ± 0.4 10^5/ml
Live cell [3]: 5.4 ± 0.2 10^5/ml
Total cell [3]: 6.6 ± 0.1 10^5/ml
Live cell [4]: 5.3 ± 0.3 10^5/ml
Total cell [4]: 6.8 ± 0.6 10^5/ml
Live cell [5]: 5.4 ± 0.1 10^5/ml
Total cell [5]: 6.4 ± 0.1 10^5/ml
Live cell [6]: 6.3 ± 0.1 10^5/ml
Total cell [6]: 7.6 ± 0.6 10^5/ml
Live cell [7]: 5.0 10^5/ml
Live cell (10^5/ml) [7]: 5.0 10^5/ml
Live cell, Mean [7]: 5.0 10^5/ml
Live cell (PBMC + LPS(5 ug/ml) + test article 0.001 uM, individual replicates): 4.4 10^5/ml and 6.0 10^5/ml and 4.6 10^5/ml
Live cell (PBMC + LPS(5 ug/ml) + test article 0.001 uM, individual replicates (1st, 2nd, 3rd)): 4.4 10^5/ml and 6.0 10^5/ml and 4.6 10^5/ml
Live cell [8]: 4.4 10^5/ml and 6.0 10^5/ml and 4.6 10^5/ml
Live cell (10^5/ml) [8]: 4.4 10^5/ml and 6.0 10^5/ml and 4.6 10^5/ml
Live cell (PBMC + LPS(5 ug/ml) + test article 0.001 uM, single replicates (1st, 2nd, 3rd)): 4.4 10^5/ml and 6.0 10^5/ml and 4.6 10^5/ml
Live cell [9]: 5.4 10^5/ml
Live cell (10^5/ml) [9]: 5.4 10^5/ml
Live cell, Mean [9]: 5.4 10^5/ml
Live cell (PBMC + LPS(5 ug/ml) + test article 0.01 uM, individual replicates): 4.5 10^5/ml and 6.6 10^5/ml and 5.0 10^5/ml
Live cell (PBMC + LPS(5 ug/ml) + test article 0.01 uM, individual replicates (1st, 2nd, 3rd)): 4.5 10^5/ml and 6.6 10^5/ml and 5.0 10^5/ml
Live cell [10]: 4.5 10^5/ml and 6.6 10^5/ml and 5.0 10^5/ml
Live cell (10^5/ml) [10]: 4.5 10^5/ml and 6.6 10^5/ml and 5.0 10^5/ml
Live cell (PBMC + LPS(5 ug/ml) + test article 0.01 uM, single replicates (1st, 2nd, 3rd)): 4.5 10^5/ml and 6.6 10^5/ml and 5.0 10^5/ml
Live cell [11]: 5.4 10^5/ml
Live cell (10^5/ml) [11]: 5.4 10^5/ml
Live cell, Mean [11]: 5.4 10^5/ml
Live cell (PBMC + LPS(5 ug/ml) + test article 0.1 uM, individual replicates): 5.0 10^5/ml and 5.6 10^5/ml (2×)
Live cell (PBMC + LPS(5 ug/ml) + test article 0.1 uM, individual replicates (1st, 2nd, 3rd)): 5.0 10^5/ml and 5.6 10^5/ml (2×)
Live cell [12]: 5.0 10^5/ml and 5.6 10^5/ml (2×)
Live cell (10^5/ml) [12]: 5.0 10^5/ml and 5.6 10^5/ml (2×)
Live cell (PBMC + LPS(5 ug/ml) + test article 0.1 uM, single replicates (1st, 2nd, 3rd)): 5.0 10^5/ml and 5.6 10^5/ml (2×)
Live cell [13]: 5.3 10^5/ml
Live cell (10^5/ml) [13]: 5.3 10^5/ml
Live cell, Mean [13]: 5.3 10^5/ml
Live cell (PBMC + LPS(5 ug/ml) + test article 1 uM, individual replicates): 5.8 10^5/ml and 4.8 10^5/ml and 5.3 10^5/ml
Live cell (PBMC + LPS(5 ug/ml) + test article 1 uM, individual replicates (1st, 2nd, 3rd)): 5.8 10^5/ml and 4.8 10^5/ml and 5.3 10^5/ml
Live cell [14]: 5.8 10^5/ml and 4.8 10^5/ml and 5.3 10^5/ml
Live cell (10^5/ml) [14]: 5.8 10^5/ml and 4.8 10^5/ml and 5.3 10^5/ml
Live cell (PBMC + LPS(5 ug/ml) + test article 1 uM, single replicates (1st, 2nd, 3rd)): 5.8 10^5/ml and 4.8 10^5/ml and 5.3 10^5/ml
Live cell [15]: 5.4 10^5/ml
Live cell (10^5/ml) [15]: 5.4 10^5/ml
Live cell, Mean [15]: 5.4 10^5/ml
Live cell (PBMC + LPS(5 ug/ml) + test article 10 uM, individual replicates): 5.2 10^5/ml and 5.4 10^5/ml and 5.6 10^5/ml
Live cell (PBMC + LPS(5 ug/ml) + test article 10 uM, individual replicates (1st, 2nd, 3rd)): 5.2 10^5/ml and 5.4 10^5/ml and 5.6 10^5/ml
Live cell [16]: 5.2 10^5/ml and 5.4 10^5/ml and 5.6 10^5/ml
Live cell (10^5/ml) [16]: 5.2 10^5/ml and 5.4 10^5/ml and 5.6 10^5/ml
Live cell (PBMC + LPS(5 ug/ml) + test article 10 uM, single replicates (1st, 2nd, 3rd)): 5.2 10^5/ml and 5.4 10^5/ml and 5.6 10^5/ml
Live cell [17]: 6.3 10^5/ml
Live cell (10^5/ml) [17]: 6.3 10^5/ml
Live cell, Mean [17]: 6.3 10^5/ml
Live cell (PBMC + LPS(5 ug/ml) + test article 100 uM, individual replicates): 6.2 10^5/ml and 6.4 10^5/ml
Live cell (PBMC + LPS(5 ug/ml) + test article 100 uM, individual replicates (1st, 2nd, 3rd)): 6.2 10^5/ml and 6.4 10^5/ml
Live cell [18]: 6.2 10^5/ml and 6.4 10^5/ml
Live cell (10^5/ml) [18]: 6.2 10^5/ml and 6.4 10^5/ml
Live cell (PBMC + LPS(5 ug/ml) + test article 100 uM, single replicates (1st, 2nd, 3rd)): 6.2 10^5/ml and 6.4 10^5/ml
Live cell (PBMC + LPS(5 ug/ml), 0.001 uM, Mean): 5.0 10^5/ml
Live cell (PBMC + LPS(5 ug/ml), 0.001 uM, single replicates): 4.4 10^5/ml and 6.0 10^5/ml and 4.6 10^5/ml
Live cell (PBMC + LPS(5 ug/ml), 0.01 uM, Mean): 5.4 10^5/ml
Live cell (PBMC + LPS(5 ug/ml), 0.01 uM, single replicates): 4.5 10^5/ml and 6.6 10^5/ml and 5.0 10^5/ml
Live cell (PBMC + LPS(5 ug/ml), 0.1 uM, Mean): 5.4 10^5/ml
Live cell (PBMC + LPS(5 ug/ml), 0.1 uM, single replicates): 5.0 10^5/ml and 5.6 10^5/ml (2×)
Live cell (PBMC + LPS(5 ug/ml), 1 uM, Mean): 5.3 10^5/ml
Live cell (PBMC + LPS(5 ug/ml), 1 uM, single replicates): 5.8 10^5/ml and 4.8 10^5/ml and 5.3 10^5/ml
Live cell (PBMC + LPS(5 ug/ml), 10 uM, Mean): 5.4 10^5/ml
Live cell (PBMC + LPS(5 ug/ml), 10 uM, single replicates): 5.2 10^5/ml and 5.4 10^5/ml and 5.6 10^5/ml
Live cell (PBMC + LPS(5 ug/ml), 100 uM, Mean): 6.3 10^5/ml
Live cell (PBMC + LPS(5 ug/ml), 100 uM, single replicates): 6.2 10^5/ml and 6.4 10^5/ml
Live cell [19]: 5.0 10^5/ml
Total cell count [19]: 6.3 10^5/ml
Live cell [20]: 4.4 10^5/ml and 6.0 10^5/ml and 4.6 10^5/ml
Total cell count [20]: 5.6 10^5/ml (2×) and 7.8 10^5/ml
Viability [20]: 79.0% and 77.0% and 82.0%
Live cell [21]: 5.4 10^5/ml
Total cell count [21]: 6.9 10^5/ml
Live cell [22]: 4.5 10^5/ml and 6.6 10^5/ml and 5.0 10^5/ml
Total cell count [22]: 6.2 10^5/ml and 7.3 10^5/ml and 7.2 10^5/ml
Live cell [23]: 5.4 10^5/ml
Total cell count [23]: 6.6 10^5/ml
Live cell [24]: 5.0 10^5/ml and 5.6 10^5/ml
Total cell count [24]: 6.8 10^5/ml and 6.4 10^5/ml and 6.5 10^5/ml
Viability [24]: 74.0% and 87.0% and 85.0%
Live cell [25]: 5.3 10^5/ml
Total cell count [25]: 6.8 10^5/ml
Live cell [26]: 5.8 10^5/ml and 4.8 10^5/ml and 5.3 10^5/ml
Total cell count [26]: 6.9 10^5/ml and 5.7 10^5/ml and 7.8 10^5/ml
Viability [26]: 83.0% (2×) and 68.0%
Live cell [27]: 5.4 10^5/ml
Total cell count [27]: 6.4 10^5/ml
Live cell [28]: 5.2 10^5/ml and 5.4 10^5/ml and 5.6 10^5/ml
Total cell count [28]: 6.4 10^5/ml and 6.7 10^5/ml and 6.2 10^5/ml
Viability [28]: 80.0% (2×) and 90.0%
Live cell [29]: 6.3 10^5/ml
Total cell count [29]: 7.6 10^5/ml
Live cell [30]: 6.2 10^5/ml and 6.4 10^5/ml
Total cell count [30]: 7.0 10^5/ml and 8.1 10^5/ml
Viability [30]: 89.0% and 80.0%
which treatments consistently affected the total and live number of PBMCs or the percent viability (in words) (up to 100 μM, 24-hour treatment): none of
